Here are results for 33 molecules from US12605374B2, “Methods for drug screening and compositions useful for the inhibition of cell proliferation and/or cell survival” (The Brigham and Women's Hospital, Inc., priority 2019, dated 2026).

The subject of experiment [1] is embryonic zebrafish. The experiment is described as follows: Blinded re-screen of top 10 prioritized ChemBridge compounds for developmental phenotypes in embryonic zebrafish. The following applies: for Phenotype Observed: embryonic zebrafish, 10 uM introduced at 5 hpf, scored at 24 and 48 hpf, blinded, in duplicate. The experiment is classed as in vivo. Here is the method: Male and female wild-type (AB) fish were housed and embryos bred for screening using standard protocols. […] 10 mM compound stocks were diluted to 2 mM using DMSO, and 1 μL of each diluted compound solution was introduced into individual wells at 5 hours post fertilization (hpf) using a manual multichannel pipettor (10 uM final concentration). The first and last column of each plate received only DMSO, serving as negative control wells.
Embryos were screened for a series of developmental phenotypes at both 24 and 48 hpf using standard light microscopy. […] Only those wells where at least two of the three embryos were dead or delayed were annotated as a hit for 24 hour death or delay/arrest, respectively.
Resulting scores for each phenotype were used to rank the over 900,000 compounds. Enrichment for compounds with high (>0.95) similarity to known therapeutics (defined using Tanimoto Coefficient of molecular fingerprints) was calculated for each of the 6 ranked lists using gene set enrichment analysis^69. The top 10 highest-ranking compounds from each of the 6 lists were screened as described above, blinded and in duplicate.

Experiment [2] deals with zebrafish embryos. The experiment is described as follows: Rescue of developmental delay/arrest phenotype by phospholipase products. The experiment is classed as in vivo. Particulars: for rescue of the developmental delay/arrest phenotype of DA5: zebrafish embryos treated with DA5. The text has this:
FIG. 15 (A)-(B): Effect of timing and injection on DA5 rescue. Rescue of the DA5 phenotype was compared using introduction of phosphatidic acid (PAC) in-well, versus injected into the embryo at the 1-cell developmental stage (A; DA5 introduced at 5 hpf).
Given the known role of anoxia in cancer cell proliferation, we investigated the potential of the DA compounds to inhibit cancer cell growth in cell culture. We found a significant reduction in the proliferation of immortalized cells upon introduction of all DA compounds (FIG. 16).

Entries after “also recorded” stand apart in the source; their conditions may differ.

Consider `CSc1ccc(-c2nc(CN3CCCCC3c3nccn3C)c(C)o2)cc1` (stereo not drawn) [ChemBridge ID 23702187], for which, in experiment [1] (Prediction: Pigmentation), the “Hit (predicted phenotype observed)” value is reported as “Yes”. The “Phenotype Observed” value in experiment [1] is “No pigmentation, cranial edema, slow heart beat”.

Take `COC(=O)c1ccc(-c2noc(CN(Cc3ccncc3)CC3CCCO3)n2)cc1` (stereo not drawn) [ChemBridge ID 18809966]: the “Hit (predicted phenotype observed)” value in experiment [1] (Prediction: Body Axis) is “Yes”. Moreover, in experiment [1], the “Phenotype Observed” value was “Small body (appear dorsalized)”.

In the case of `CCOC(=O)C1(CCOc2ccccc2)CCN(Cc2ccccc2OC)CC1` [ChemBridge ID 87194463], the “Hit (predicted phenotype observed)” value in experiment [1] (Prediction: Cardiac) is “No”. For the same molecule, the “Phenotype Observed” value in experiment [1] was “Dead (48 h)”.

Turning to `CC(NCc1ccccc1O)C12CC3CC(CC(C3)C1)C2` (stereo not drawn) [ChemBridge ID 6108849], the “Hit (predicted phenotype observed)” value in experiment [1] (Prediction: Pigmentation) and in experiment [1] (Prediction: Pigmentation Only) was “Yes” each time. Also, in experiment [1], the “Phenotype Observed” value is “No pigmentation, dying”.

Take `CCOC(=O)C1(CCOc2ccccc2)CCN(Cc2cc(OC)cc(OC)c2)CC1` [ChemBridge ID 23490385]: the “Hit (predicted phenotype observed)” value is on record as “Yes” in experiment [1] (Prediction: Cardiac) and “No” in experiment [1] (Prediction: Cranial Edema). Further, the “Phenotype Observed” value in experiment [1] is given as “Pericardial edema, no heart beat”.

`COC(=O)c1ccc(-c2nc(CN3CCCCC3c3nc4cc(F)ccc4[nH]3)c(C)o2)cc1` (stereo not drawn) [ChemBridge ID 22685803]: the “Hit (predicted phenotype observed)” value in experiment [1] (Prediction: Body Axis) is given as “Yes”. In experiment [1], the “Phenotype Observed” value was “Most dead, remaining have small bodies”.

Regarding `CN(CC1CCN(CCc2ccc(Cl)cc2)CC1)C(=O)C1=CCCCC1` [ChemBridge ID 37690524], in experiment [1] (Prediction: Cardiac), the “Hit (predicted phenotype observed)” value is given as “Yes”. In addition, the “Phenotype Observed” value in experiment [1] is listed as “Pericardial edema, no heart beat”.

As for `COC(=O)c1ccc(-c2noc(CN(CCO)Cc3ccccc3)n2)cc1` [ChemBridge ID 86606851], the “Hit (predicted phenotype observed)” value in experiment [1] (Prediction: Body Axis) is “Yes”. Further, the “Phenotype Observed” value in experiment [1] is “Some dead, alive have no head, necrotic”.

Turning to `CCOC(=O)C1(Cc2ccccc2)CCCN(Cc2nccn2CC)C1` (stereo not drawn) [ChemBridge ID 98334673], the “Hit (predicted phenotype observed)” value in experiment [1] (Prediction: Pigmentation) and in experiment [1] (Prediction: Pigmentation Only) was “Yes” each time. For the same molecule, the “Phenotype Observed” value in experiment [1] is given as “No pigmentation, cranial edema”.

Turning to `O=P(O)(O)O[C@@H]1[C@H](O)[C@H](O)[C@@H](OP(=O)(O)O)[C@H](OP(=O)(O)O)[C@H]1O` [D-myo-Inositol-1,4,5-triphosphate], the “rescue of the developmental delay/arrest phenotype of DA5” value in experiment [2] is given as “did not observe rescue”.

In the case of `COC(=O)c1ccc(-c2nc(CN(C)C(C)c3nc(C)cs3)c(C)o2)cc1` (stereo not drawn) [ChemBridge ID 34105851], the “Hit (predicted phenotype observed)” value in experiment [1] (Prediction: Body Axis) is reported as “Yes”. The “Phenotype Observed” value in experiment [1] is “Small body (no head)”.

As to `O=C(c1cc(COc2ccc3ncccc3c2)on1)N1CCCC(OCc2ccccn2)C1` (stereo not drawn) [ChemBridge ID 21652166], the “Hit (predicted phenotype observed)” value in experiment [1] (Prediction: Delay/Arrest) is “Yes”. The “Phenotype Observed” value in experiment [1] is 5-10 somite stage at 48 h.

Consider `CN(CC1CCN(CCc2ccc(F)cc2)CC1)C(=O)c1ccsc1` [ChemBridge ID 26410496], for which the “Hit (predicted phenotype observed)” value in experiment [1] (Prediction: Cardiac) is “Yes”. Besides, the “Phenotype Observed” value in experiment [1] is “Pericardial edema, no heart beat”.

Consider `CCOC(=O)C1(C/C=C/c2ccccc2)CCCN(Cc2nccn2CC)C1` (stereo not drawn) [ChemBridge ID 69904708], for which the “Hit (predicted phenotype observed)” value in experiment [1] (Prediction: Pigmentation) and in experiment [1] (Prediction: Pigmentation Only) was “Yes” in each case. Besides, the “Phenotype Observed” value in experiment [1] is recorded as “No pigmentation, cranial edema, slow heart beat”.

For the molecule `COCC1CCN(C(=O)c2cc(COc3ccc4ncccc4c3)on2)CC1` [ChemBridge ID 13197878], the “Hit (predicted phenotype observed)” value in experiment [1] (Prediction: Delay/Arrest) is “Yes”. Besides, in experiment [1], the “Phenotype Observed” value was “Bud stage at 24 h, dead at 48 h”.

For `CN(CC1CCN(CCc2ccc(Cl)cc2)CC1)C(=O)c1ccccc1-n1cccn1` [ChemBridge ID 18069546], the “Hit (predicted phenotype observed)” value in experiment [1] (Prediction: Cardiac) was “Yes”. In addition, the “Phenotype Observed” value in experiment [1] is recorded as “Pericardial edema, no heart beat”.

With `Br.COc1ccccc1Nc1nc(-c2sc(C)nc2C)cs1` [ChemBridge ID 5931065], the “Hit (predicted phenotype observed)” value in experiment [1] (Prediction: Dead) is listed as “Yes”. Moreover, in experiment [1], the “Phenotype Observed” value is given as “Dead (48 h)”.

Turning to `O=C(Nc1ccccc1Cl)N1CCN(c2ccccc2F)CC1` [ChemBridge ID 7008803], the “Hit (predicted phenotype observed)” value in experiment [1] (Prediction: Cranial Edema) was “No”. In addition, the “Phenotype Observed” value in experiment [1] is reported as “slight discoloration”.

As for `CCOC(=O)C1(Cc2cccc(OC)c2)CCCN(Cc2nccn2CC)C1` (stereo not drawn) [ChemBridge ID 38433186], the “Hit (predicted phenotype observed)” value in experiment [1] (Prediction: Pigmentation) and in experiment [1] (Prediction: Pigmentation Only) was “Yes” each time. Also, the “Phenotype Observed” value in experiment [1] is on record as “No pigmentation”.

As to `CN(CC1CCN(CCc2ccc(Cl)cc2)CC1)C(=O)c1cccc(N(C)C)c1` [ChemBridge ID 39911836], in experiment [1] (Prediction: Cardiac), the “Hit (predicted phenotype observed)” value is on record as “Yes”. The “Phenotype Observed” value in experiment [1] is given as “Pericardial edema, no heart beat”.

Consider Phosphatidic acid, for which the “rescue of the DA5 phenotype” value is on record as “rescue still observed” in experiment [2] (DA5 introduced at 5 hpf, PAC in-well at 24 hpf, phenotypes surveyed at 36 hpf); “rescued” in experiment [2] (upon injection and introduction into embryonic medium, multiple time points after DA5). The results for the “rescue of the developmental delay/arrest phenotype of DA5” value in experiment [2] and in experiment [2] (listed as phosphatidic acid) were “rescued” and “rescue”, respectively. In addition, the “rescue of the phenotype of oligomycin A” value in experiment [2] (zebrafish embryos treated with oligomycin A) was “did not rescue”.

Regarding `O=C(c1cc(COc2ccc3ncccc3c2)on1)N1C[C@@H]2C[C@H]3C[C@@H](C2)C[C@@H]1C3` [ChemBridge ID 19759648], the “Hit (predicted phenotype observed)” value in experiment [1] (Prediction: Delay/Arrest) is recorded as “Yes”. For the same molecule, the “Phenotype Observed” value in experiment [1] is listed as “Bud stage at 24 h, dead at 48 h”.

Regarding `COc1ccccc1Nc1nc(-c2ccncc2)cs1` [ChemBridge ID 5745969], in experiment [1] (Prediction: Dead), the “Hit (predicted phenotype observed)” value was “No”. The “Phenotype Observed” value in experiment [1] is “Multiple severe phenotypes”.

`CCOC(=O)C1(CCOc2ccccc2)CCN(Cc2ccc(OC)cc2)CC1` [ChemBridge ID 38617825]: in experiment [1] (Prediction: Cardiac), the “Hit (predicted phenotype observed)” value is reported as “No”. Further, the “Phenotype Observed” value in experiment [1] is recorded as “Dead (48 h)”.

Consider `CN(CC1CCN(CCc2ccc(Cl)cc2)CC1)C(=O)c1ccsc1` [ChemBridge ID 59314184], for which the “Hit (predicted phenotype observed)” value in experiment [1] (Prediction: Cardiac) is “Yes”. Moreover, the “Phenotype Observed” value in experiment [1] is “Pericardial edema, no heart beat”.

As for `COC(=O)c1ccc(-c2noc(CN(CCO)Cc3cccs3)n2)cc1` [ChemBridge ID 56638922], the “Hit (predicted phenotype observed)” value in experiment [1] (Prediction: Body Axis) is recorded as “Yes”. For the same molecule, the “Phenotype Observed” value in experiment [1] is reported as “Small heads, short bodies”.

As to `Cc1oc(-c2cccc(C(F)(F)F)c2)nc1CN1CCCCC1c1nccn1C` (stereo not drawn) [ChemBridge ID 91866361], the “Hit (predicted phenotype observed)” value in experiment [1] (Prediction: Pigmentation) is reported as “Yes”. Besides, the “Phenotype Observed” value in experiment [1] was “No pigmentation, cranial edema, slow heart beat”.

For `O=C(c1cc(COc2ccc3ncccc3c2)on1)N1CCC(N2CCSCC2)CC1` [ChemBridge ID 45187255], in experiment [1] (Prediction: Delay/Arrest), the “Hit (predicted phenotype observed)” value is “Yes”. Moreover, the “Phenotype Observed” value in experiment [1] is reported as “Bud stage at 24 h, 5-18 somites at 48 h”.

On to `OCCC1CN(Cc2ccc(F)cc2F)CCN1CCCc1ccccc1` (stereo not drawn) [ChemBridge ID 35983174], for which the “Hit (predicted phenotype observed)” value in experiment [1] (Prediction: Cardiac) and in experiment [1] (Prediction: Cardiac Only) was “Yes” each time. The “Phenotype Observed” value in experiment [1] is “Pericardial edema, no heart beat”.

Turning to `C[C@@H]1CN(C(=O)c2cc(COc3ccc4ncccc4c3)on2)C[C@H](C)O1` [ChemBridge ID 44889923], the “Hit (predicted phenotype observed)” value in experiment [1] (Prediction: Delay/Arrest) was “Yes”. Moreover, the “Phenotype Observed” value in experiment [1] is “Look 24 h at 48 h”.

In the case of `CCOC(=O)C1(CCc2ccccc2)CCCN(Cc2nccn2CC)C1` (stereo not drawn) [ChemBridge ID 13300080], the “Hit (predicted phenotype observed)” value in experiment [1] (Prediction: Pigmentation) and in experiment [1] (Prediction: Pigmentation Only) was “Yes” each time. Also, the “Phenotype Observed” value in experiment [1] is given as “No pigmentation, dying; also recorded: No pigmentation, slow heart beat”.

In the case of `O=C(c1cc(COc2ccc3ncccc3c2)on1)N1C[C@H]2CCC[C@H]1C2` [ChemBridge ID 54305680], the “Hit (predicted phenotype observed)” value in experiment [1] (Prediction: Delay/Arrest) is listed as “Yes”. In addition, in experiment [1], the “Phenotype Observed” value is “Bud stage at 24 h, dead at 48 h”.

Consider `COC(=O)c1ccc(-c2nc(CN3CCCCC3c3cccc(OC)c3)c(C)o2)cc1` (stereo not drawn) [ChemBridge ID 20494296], for which the “Hit (predicted phenotype observed)” value in experiment [1] (Prediction: Body Axis) is listed as “Yes”. For the same molecule, the “Phenotype Observed” value in experiment [1] is recorded as “Short, no heads”.
